# Assay results: PubChem BioAssay (NCI)
#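 Tested at 5 concentrations; 48 h exposure; 96-well plates; endpoints linearly interpolated, else capped at highest concentration. TGI marks complete inhibition of growth.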
# Tests used:
# Assay in all cases: NCI tumour cell line growth inhibition, 48 h
# IGROV1 ovarian = tested on: IGROV1 ovarian
# HS 578T breast = tested on: HS 578T breast
# HCT-15 colon = tested on: HCT-15 colon
# EKVX NSCLC = tested on: EKVX NSCLC
# HCT-116 colon = tested on: HCT-116 colon
# SF-295 CNS = tested on: SF-295 CNS
# SF-268 CNS = tested on: SF-268 CNS
# 786-0 renal = tested on: 786-0 renal
# RXF 393 renal = tested on: RXF 393 renal
# HT29 colon = tested on: HT29 colon
# KM12 colon = tested on: KM12 colon
# MDA-MB-435 = tested on: MDA-MB-435
# OVCAR-8 ovarian = tested on: OVCAR-8 ovarian
# SR leukemia = tested on: SR leukemia
# T-47D breast = tested on: T-47D breast
# DU-145 prostate = tested on: DU-145 prostate
# A549 NSCLC = tested on: A549 NSCLC
# UACC-257 melanoma = tested on: UACC-257 melanoma
# MCF7 breast = tested on: MCF7 breast
# LOX IMVI melanoma = tested on: LOX IMVI melanoma
# OVCAR-5 ovarian = tested on: OVCAR-5 ovarian
# K-562 leukemia = tested on: K-562 leukemia
# ACHN renal = tested on: ACHN renal
# NCI-H23 lung = tested on: NCI-H23 lung
# HOP-62 NSCLC = tested on: HOP-62 NSCLC
# NCI/ADR-RES ovarian = tested on: NCI/ADR-RES ovarian
# HL-60(TB) leukemia = tested on: HL-60(TB) leukemia
# SK-MEL-5 melanoma = tested on: SK-MEL-5 melanoma
# UO-31 renal = tested on: UO-31 renal
# SK-MEL-28 melanoma = tested on: SK-MEL-28 melanoma
# TK-10 renal = tested on: TK-10 renal
# U251 CNS = tested on: U251 CNS
# SN12C renal = tested on: SN12C renal
# CCRF-CEM leukemia = tested on: CCRF-CEM leukemia
# OVCAR-4 ovarian = tested on: OVCAR-4 ovarian
# MDA-N = tested on: MDA-N
# HOP-92 NSCLC = tested on: HOP-92 NSCLC
# NCI-H522 lung = tested on: NCI-H522 lung
# SF-539 CNS = tested on: SF-539 CNS
# MALME-3M melanoma = tested on: MALME-3M melanoma
# SNB-19 CNS = tested on: SNB-19 CNS
# SNB-75 CNS = tested on: SNB-75 CNS
# MDA-MB-231 breast = tested on: MDA-MB-231 breast
# NCI-H460 lung = tested on: NCI-H460 lung
# COLO 205 colon = tested on: COLO 205 colon
# CAKI-1 renal = tested on: CAKI-1 renal
# MOLT-4 leukemia = tested on: MOLT-4 leukemia
# NCI-H226 lung = tested on: NCI-H226 lung
# A498 renal = tested on: A498 renal
# RPMI-8226 leukemia = tested on: RPMI-8226 leukemia
# PC-3 prostate = tested on: PC-3 prostate
# M14 melanoma = tested on: M14 melanoma
# HCC-2998 colon = tested on: HCC-2998 colon
# SW-620 colon = tested on: SW-620 colon
# OVCAR-3 ovarian = tested on: OVCAR-3 ovarian
smiles,measurement,setting,value
CO[C@@H]1C[C@H]2[C@@H]3CC[C@H]([C@@H](C)CO)[C@@]3(C)CC[C@@H]2[C@@]2(C)CC[C@H]3C[C@]312,TGI,IGROV1 ovarian,> 100 µM
same,TGI,HS 578T breast,82.3 µM
same,TGI,HCT-15 colon,> 100 µM
same,TGI,EKVX NSCLC,> 100 µM
same,TGI,HCT-116 colon,> 100 µM
same,TGI,SF-295 CNS,89.2 µM
same,TGI,SF-268 CNS,> 100 µM
same,TGI,786-0 renal,> 100 µM
same,TGI,RXF 393 renal,45.6 µM
same,TGI,HT29 colon,36.2 µM
same,TGI,KM12 colon,36.6 µM
same,TGI,MDA-MB-435,> 100 µM
same,TGI,OVCAR-8 ovarian,> 100 µM
same,TGI,SR leukemia,> 100 µM
same,TGI,T-47D breast,> 100 µM
same,TGI,DU-145 prostate,> 100 µM
same,TGI,A549 NSCLC,> 100 µM
same,TGI,UACC-257 melanoma,71.9 µM
same,TGI,MCF7 breast,31.8 µM
same,TGI,LOX IMVI melanoma,34.6 µM
same,TGI,OVCAR-5 ovarian,> 100 µM
same,TGI,K-562 leukemia,60.5 µM
same,TGI,ACHN renal,66.4 µM
same,TGI,NCI-H23 lung,> 100 µM
same,TGI,HOP-62 NSCLC,> 100 µM
same,TGI,NCI/ADR-RES ovarian,93 µM
same,TGI,HL-60(TB) leukemia,76.3 µM
same,TGI,SK-MEL-5 melanoma,31.1 µM
same,TGI,UO-31 renal,98.8 µM
same,TGI,SK-MEL-28 melanoma,83.5 µM
same,TGI,TK-10 renal,> 100 µM
same,TGI,U251 CNS,27.7 µM
same,TGI,SN12C renal,77.1 µM
same,TGI,CCRF-CEM leukemia,> 100 µM
same,TGI,OVCAR-4 ovarian,> 100 µM
same,TGI,MDA-N,> 100 µM
same,TGI,HOP-92 NSCLC,58.5 µM
same,TGI,NCI-H522 lung,71.8 µM
same,TGI,SF-539 CNS,> 100 µM
same,TGI,MALME-3M melanoma,41.2 µM
same,TGI,SNB-19 CNS,> 100 µM
same,TGI,SNB-75 CNS,> 100 µM
same,TGI,MDA-MB-231 breast,80.7 µM
same,TGI,NCI-H460 lung,43.1 µM
same,TGI,COLO 205 colon,31.4 µM
same,TGI,CAKI-1 renal,> 100 µM
same,TGI,MOLT-4 leukemia,> 100 µM
same,TGI,NCI-H226 lung,59.9 µM
same,TGI,A498 renal,> 100 µM
same,TGI,RPMI-8226 leukemia,89.6 µM
same,TGI,PC-3 prostate,57.3 µM
same,TGI,M14 melanoma,69.8 µM
same,TGI,HCC-2998 colon,> 100 µM
same,TGI,SW-620 colon,> 100 µM
same,TGI,OVCAR-3 ovarian,> 100 µM
